In US12551482B2, “Aurora kinase inhibitors” (The Regents of the University of California, priority 2013, dated 2026):
Where two headings read alike, the source gives them in different places.

Columns and labels:
23132/87 = experiment: Cancer cell line profiling, Genomics of Drug Sensitivity Project; details: read-out: CD532 EC50 (uM)
LB831-BLC = experiment: as above; details: read-out: CD532 EC50 (uM)
SH-4 = experiment: as above; details: Homo sapiens, SH-4, read-out: CD532 EC50 (uM)
SNU-449 = experiment: as above; details: Homo sapiens, SNU-449, read-out: CD532 EC50 (uM)
P-Histone H3 (S10) = experiment: Dose response immunoblot for phosphorylation of Histone H3 (S10) in MYCN-amplified neuroblastoma cell lines; type: cell-based; details: FIGS. 1D and 7
Protocol: Neuroblastoma tumor cell lines were obtained from the University of California San Francisco Cell Culture Facility (Kelly, SK-N-BE2, and SH-EP). SMS-KCN, SHEP MYCN^wt and MYCN^T58A/S62A cells were obtained. All cells were grown in RPMI with 10% FBS. Neuroblastoma cells were harvested and lysed with Cell Signaling Lysis buffer+1% SDS, sonicated and supernatants boiled in LDS sample buffer (Invitrogen). Western blots were performed as described previously (Chanthery et al., 2012), with primary antibodies to MYCN (ab24193, Abcam), Histone H3, P-Histone H3 (S10), Aurora A (Cell signaling), and GAPDH (Millipore). Western blot quantitation performed with ImageJ software.

SK-MEL-5 = experiment: Cancer cell line profiling, Genomics of Drug Sensitivity Project
COLO-829 = experiment: as above; details: Homo sapiens, COLO-829, read-out: CD532 EC50 (uM)
HSC-2 = experiment: as above; details: Homo sapiens, HSC-2, read-out: CD532 EC50 (uM)
SAS = experiment: as above; details: read-out: CD532 EC50 (uM)
MYCN = experiment: MYCN-amplified neuroblastoma xenografts, MYCN protein in tumors; type: in vivo; details: mice treated daily for 2 days with 60 mg/kg
Protocol: Mice were injected intraperitoneally as described. For determining tumor volume, for example in medulloblastoma model mice, mice were euthanized once maximum tumor length exceeded 2.0 cm, per IACUC protocol (IACUC, Institutional Animal Care and Use Committee).

OVMIU = experiment: Cancer cell line profiling, Genomics of Drug Sensitivity Project; details: read-out: CD532 EC50 (uM)
SK-MEL-3 = experiment: as above; details: Homo sapiens, SK-MEL3, read-out: CD532 EC50 (uM)
EFO-21 = experiment: as above; details: Homo sapiens, EFO-21, read-out: CD532 EC50 (uM)
NB17 = experiment: as above; details: read-out: CD532 EC50 (uM)
MEWO = experiment: as above; details: Homo sapiens, read-out: CD532 EC50 (uM)
BICR 10 = experiment: as above; details: read-out: CD532 EC50 (uM)
RPMI 2650 = experiment: as above; details: Homo sapiens, RPMI-2650, read-out: CD532 EC50 (uM)
NBsusSR = experiment: as above; details: read-out: CD532 EC50 (uM)
LB996-RCC = experiment: as above; details: read-out: CD532 EC50 (uM)
BB30-HNC = experiment: as above; details: read-out: CD532 EC50 (uM)
[1] = Pharmacokinetics of CD532 in mice; type: in vivo; details: mouse, serum, ip, 20 mg/kg, intraperitoneal injection
GI-ME-N = experiment: Cancer cell line profiling, Genomics of Drug Sensitivity Project
[2] = tested on: MYCN amplified neuroblastoma cells; experiment: Cell cycle by flow cytometry; type: cell-based; details: 4 or 6 hrs of treatment
Protocol: Neuroblastoma cells were treated for the indicated time, trypsinized, washed, stained with Dylight 800 at 0.3 μg/mL (Pierce, 46421), fixed with 1.5% PFA, and permeabilized with 100% methanol. Cells were then stained with antibodies against p-MPM2 (Millipore, 16-155), p-pan-Aurora (Cell Signaling, 2914), MYCN (Thermo, PA5-17403), rabbit IgG (Invitrogen, A10542), or mouse IgG (BioLegend, 405307). Cells were stained with DAPI at 0.3 μg/mL (Invitrogen, D21490) and analyzed on the BD LSR II flow cytometer. For cell cycle analysis, cells were stimulated with EdU for 2 hours prior to harvest, then probed using the Click-iT EdU Flow Cytometry Assay Kit (Invitrogen, C10424). Cells were stained with propidium iodide (BD, 556547) and analyzed on the BD FACSCalibur flow cytometer. Data was gated using Cytobank. For viability studies, neuroblastoma cells were plated in 96-well plates at a density of 1,000 cells/well for SHEP or 4,000 cells/well for Kelly or SK—N-BE2 cells, then incubated with indicated concentrations of drug for 72 hours at 37° C. Plates were frozen at −80° C. to induce cell lysis. CyQUANT reagent mixture (Invitrogen, C7026) was added to thawed plates, then fluorescence was measured. Alternatively, resazurin (Sigma-Aldrich, R7017) was added directly to wells following drug treatment then incubated for 4 hours at 37° C. prior to measuring fluorescence. Data was analyzed using GraphPad Prism software.

O=C(Nc1ccc(Nc2nccc(Nc3cc(C4CCCC4)[nH]n3)n2)cc1)Nc1cccc(C(F)(F)F)c1 [CD532, 1-(4-((4-((5-cyclopentyl-1H-pyrazol-3-yl)amino)pyrimidin-2-yl)amino)phenyl)-3-(3-(trifluoromethyl)phenyl)urea]
EC50 (23132/87): 0.471 µM
EC50 (LB831-BLC): 1.29 µM
EC50 (SH-4): 0.783 µM
EC50 (SNU-449): 12.1 µM
phosphorylation of Histone H3 at S10, dose response (P-Histone H3 (S10)): behaves similarly to MLN8237 with regard to Histone H3 phosphorylation
EC50 (SK-MEL-5; Homo sapiens, SK-MEL-5, read-out: CD532 EC50 (uM), SK-MEL-5 cell line, Skin): 0.525 µM
EC50 (SK-MEL-5; read-out: CD532 EC50, SK-MEL-5 cell line, Skin): 0.366 µM
EC50 (COLO-829): 0.796 µM
EC50 (HSC-2): 2.15 µM
EC50 (SAS): 1.46 µM
MYCN protein in tumors (MYCN): decreased levels of MYCN protein
EC50 (OVMIU): 0.869 µM
EC50 (SK-MEL-3): 0.567 µM
EC50 (EFO-21): 1.87 µM
EC50 (NB17): 0.282 µM
EC50 (MEWO): 1.46 µM
EC50 (BICR 10): 4.27 µM
EC50 (RPMI 2650): 0.412 µM
EC50 (NBsusSR): 0.382 µM
EC50 (LB996-RCC): 2.08 µM
EC50 (BB30-HNC): 0.462 µM
half-life [1]: ~1.5 h
AUC(0-t) ([1]; read-out: AUC0-24): 27 µM·h
EC50 (GI-ME-N; read-out: CD532 EC50 (uM), GI-ME-N cell line, Nervous System): 0.428 µM
EC50 (GI-ME-N; read-out: CD532 EC50, GI-ME-N cell line, Nervous System): 0.812 µM
cell cycle effect [2]: potent loss of S-phase entry
